Drawing on patent EP3782997A1, “FUSED PYRIMIDINE COMPOUNDS AND PHARMACEUTICAL COMPOSITIONS THEREOF FOR THE TREATMENT OF FIBROTIC DISEASES” (Galapagos N.V., priority 2019, dated 2021), this text covers IC50 for 26 compounds.

Molecules are shown by their SMILES. A value given as a limit tells only on which side of the number the result lay.

For the experiment, the target named is hENPP2 (Homo sapiens, UniProt Q13822). The experiment in a line: Human ENPP2 (hENPP2) biochemical assay using LPC as substrate. The conditions noted are these: 150 µM LPC (palmitoyl 16:0), 37°C for 30 min. The procedure, abridged:
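IC50 came from compound series (top 50 µM, 1/3 steps) incubated 30 min at 37°C with 1 or 3 µg/mL final enzyme and palmitoyl LPC added at 150 µM, pH 8.5 Tris buffer with Ca2+. Choline output measured as quinoneimine dye at 555 nm via coupled oxidase/HRP/TOOS detection.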
For orientation: IC50 means the point on the concentration scale where inhibition reaches its midpoint. Low readings indicate inhibition by little substance, high ones a need for much substance. Compound `Cc1cc(C)cc(Nc2ncc3c(n2)CCN(C2CCN(C(=O)c4c[nH]nn4)CC2)C3)c1` [compound 162, [4-[2-(3,5-dimethylanilino)-7,8-dihydro-5H-pyrido[4,3-d]pyrimidin-6-yl]-1-piperidyl]-(1H-triazol-4-yl)methanone] registered an IC50 of more than 1000 nM.
Take `Cc1cc(C)cc(Nc2ncc3c(n2)CN([C@@H]2CCN(C(=O)c4cc5nn[nH]c5cc4C)[C@H](C)C2)C3)c1` [compound 163, [(2R,4R)-4-[2-(3,5-dimethylanilino)-5,7-dihydropyrrolo[3,4-d]pyrimidin-6-yl]-2-methyl-1-piperidyl]-(6-methyl-1H-benzotriazol-5-yl)methanone]: the IC50 was 0.01 to 100 nM.
With `C[C@@H]1C[C@@H](N2Cc3cnc(Nc4ccccc4)nc3C2)CCN1C(=O)c1ccc2[nH]nnc2c1` [compound 165, [(2R,4S)-4-(2-anilino-5,7-dihydropyrrolo[3,4-d]pyrimidin-6-yl)-2-methyl-1-piperidyl]-(1H-benzotriazol-5-yl)methanone] the figure was more than 1000 nM.
With `C[C@@H]1C[C@H](N2Cc3cnc(Nc4ccccc4)nc3C2)CCN1C(=O)c1ccc2[nH]nnc2c1` [compound 166, [(2R,4R)-4-(2-anilino-5,7-dihydropyrrolo[3,4-d]pyrimidin-6-yl)-2-methyl-1-piperidyl]-(1H-benzotriazol-5-yl)methanone] the figure was 100 to 500 nM; with `Cc1cc(C)cc(Nc2ncc3c(n2)CN([C@@H]2CCN(C(=O)c4ccc5[nH]nnc5c4C)[C@H](C)C2)C3)c1` [compound 168, [(2R,4R)-4-[2-(3,5-dimethylanilino)-5,7-dihydropyrrolo[3,4-d]pyrimidin-6-yl]-2-methyl-1-piperidyl]-(4-methyl-1H-benzotriazol-5-yl)methanone], 0.01 to 100 nM.
With `COc1cccc(Nc2ncc3c(n2)CN([C@H]2CCN(C(=O)c4ccc5[nH]nnc5c4)[C@H](C)C2)C3)c1` [compound 170, 1H-benzotriazol-5-yl-[(2R,4S)-4-[2-(3-methoxyanilino)-5,7-dihydropyrrolo[3,4-d]pyrimidin-6-yl]-2-methyl-1-piperidyl]methanone] the figure was 100 to 500 nM; with `COc1cccc(Nc2ncc3c(n2)CN([C@@H]2CCN(C(=O)c4ccc5[nH]nnc5c4)[C@H](C)C2)C3)c1` [compound 171, 1H-benzotriazol-5-yl-[(2R,4R)-4-[2-(3-methoxyanilino)-5,7-dihydropyrrolo[3,4-d]pyrimidin-6-yl]-2-methyl-1-piperidyl]methanone], 0.01 to 100 nM.
With `C[C@@H]1C[C@H](N2Cc3cnc(Nc4ccc(F)cc4)nc3C2)CCN1C(=O)c1c[nH]nn1` [compound 173, [(2R,4R)-4-[2-(4-fluoroanilino)-5,7-dihydropyrrolo[3,4-d]pyrimidin-6-yl]-2-methyl-1-piperidyl]-(1H-triazol-4-yl)methanone], the IC50 is more than 1000 nM.
The same measure for `Cc1cc(C)cc(Nc2ncc3c(n2)CCN(C2CCN(C(=O)c4ccnc(NS(C)(=O)=O)c4)CC2)C3)c1` [compound 174, N-[4-[4-[2-(3,5-dimethylanilino)-7,8-dihydro-5H-pyrido[4,3-d]pyrimidin-6-yl]piperidine-1-carbonyl]-2-pyridyl]methanesulfonamide]: more than 1000 nM; for `C[C@@H]1C[C@H](N2Cc3cnc(Nc4ccc(C(F)(F)F)cc4)nc3C2)CCN1C(=O)c1c[nH]nn1` [compound 175, [(2R,4R)-2-methyl-4-[2-[4-(trifluoromethyl)anilino]-5,7-dihydropyrrolo[3,4-d]pyrimidin-6-yl]-1-piperidyl]-(1H-triazol-4-yl)methanone]: 0.01 to 100 nM; for `Cc1cc(C)cc(Nc2ncc3c(n2)CN([C@@H]2CCN(C(=O)c4nn[nH]c4C)[C@H](C)C2)C3)c1` [compound 176, [(2R,4R)-4-[2-(3,5-dimethylanilino)-5,7-dihydropyrrolo[3,4-d]pyrimidin-6-yl]-2-methyl-1-piperidyl]-(5-methyl-1H-triazol-4-yl)methanone]: 0.01 to 100 nM.
The same measure for `C[C@@H]1C[C@H](N2Cc3cnc(Nc4ccc(S(F)(F)(F)(F)F)cc4)nc3C2)CCN1C(=O)c1ccnc(NS(C)(=O)=O)c1` [compound 177, N-[4-[(2R,4R)-2-methyl-4-[2-[4-(pentafluoro-λ^6-sulfanyl)anilino]-5,7-dihydropyrrolo[3,4-d]pyrimidin-6-yl]piperidine-1-carbonyl]-2-pyridyl]methanesulfonamide]: 0.01 to 100 nM; for `C[C@@H]1C[C@@H](N2Cc3cnc(Nc4ccc(S(F)(F)(F)(F)F)cc4)nc3C2)CCN1C(=O)c1ccnc(NS(C)(=O)=O)c1` [compound 178, N-[4-[(2R,4S)-2-methyl-4-[2-[4-(pentafluoro-λ^6-sulfanyl)anilino]-5,7-dihydropyrrolo[3,4-d]pyrimidin-6-yl]piperidine-1-carbonyl]-2-pyridyl]methanesulfonamide]: 0.01 to 100 nM; for `C[C@@H]1C[C@H](N2Cc3cnc(Nc4ccc(Cl)cc4)nc3C2)CCN1C(=O)c1ccnc(NS(C)(=O)=O)c1` [compound 179, N-[4-[(2R,4R)-4-[2-(4-chloroanilino)-5,7-dihydropyrrolo[3,4-d]pyrimidin-6-yl]-2-methyl-piperidine-1-carbonyl]-2-pyridyl]methanesulfonamide]: 0.01 to 100 nM.
`C[C@@H]1C[C@@H](N2Cc3cnc(Nc4ccc(Cl)cc4)nc3C2)CCN1C(=O)c1ccnc(NS(C)(=O)=O)c1` [compound 180, N-[4-[(2R,4S)-4-[2-(4-chloroanilino)-5,7-dihydropyrrolo[3,4-d]pyrimidin-6-yl]-2-methyl-piperidine-1-carbonyl]-2-pyridyl]methanesulfonamide] displayed an IC50 of 100 to 500 nM.
With `Cc1ccc(Nc2ncc3c(n2)CN([C@@H]2CCN(C(=O)c4ccnc(NS(C)(=O)=O)c4)[C@H](C)C2)C3)cc1` [compound 181, N-[4-[(2R,4R)-2-methyl-4-[2-(4-methylanilino)-5,7-dihydropyrrolo[3,4-d]pyrimidin-6-yl]piperidine-1-carbonyl]-2-pyridyl]methanesulfonamide] the figure was 0.01 to 100 nM.
Compound `Cc1ccc(Nc2ncc3c(n2)CN([C@H]2CCN(C(=O)c4ccnc(NS(C)(=O)=O)c4)[C@H](C)C2)C3)cc1` [compound 182, N-[4-[(2R,4S)-2-methyl-4-[2-(4-methylanilino)-5,7-dihydropyrrolo[3,4-d]pyrimidin-6-yl]piperidine-1-carbonyl]-2-pyridyl]methanesulfonamide] displayed a half-inhibitory concentration (IC50) of 500 to 1000 nM.
With `Cc1cc2[nH]nnc2cc1C(=O)N1CC[C@@H](N2Cc3cnc(Nc4ccc(C(F)(F)F)cc4)nc3C2)C[C@H]1C` [compound 183, (6-methyl-1H-benzotriazol-5-yl)-[(2R,4R)-2-methyl-4-[2-[4-(trifluoromethyl)anilino]-5,7-dihydropyrrolo[3,4-d]pyrimidin-6-yl]-1-piperidyl]methanone] the figure was 0.01 to 100 nM; with `COc1cc(C)cc(Nc2ncc3c(n2)CN([C@@H]2CCN(C(=O)c4cc5nn[nH]c5cc4C)[C@H](C)C2)C3)c1` [compound 184, [(2R,4R)-4-[2-(3-methoxy-5-methyl-anilino)-5,7-dihydropyrrolo[3,4-d]pyrimidin-6-yl]-2-methyl-1-piperidyl]-(6-methyl-1H-benzotriazol-5-yl)methanone], 0.01 to 100 nM.
The same measure for `COc1cc(C)cc(Nc2ncc3c(n2)CN([C@H]2CCN(C(=O)c4cc5nn[nH]c5cc4C)[C@H](C)C2)C3)c1` [compound 185, [(2R,4S)-4-[2-(3-methoxy-5-methyl-anilino)-5,7-dihydropyrrolo[3,4-d]pyrimidin-6-yl]-2-methyl-1-piperidyl]-(6-methyl-1H-benzotriazol-5-yl)methanone]: 0.01 to 100 nM; for `C[C@@H]1C[C@H](N2Cc3cnc(Nc4ccc(C(F)(F)F)cc4)nc3C2)CCN1C(=O)c1ccnc(NS(C)(=O)=O)c1` [compound 186, N-[4-[(2R,4R)-2-methyl-4-[2-[4-(trifluoromethyl)anilino]-5,7-dihydropyrrolo[3,4-d]pyrimidin-6-yl]piperidine-1-carbonyl]-2-pyridyl]methanesulfonamide]: 0.01 to 100 nM.
The same measure for `COc1cc(C)cc(Nc2ncc3c(n2)CN([C@@H]2CCN(C(=O)c4ccnc(NS(C)(=O)=O)c4)[C@H](C)C2)C3)c1` [compound 187, N-[4-[(2R,4R)-4-[2-(3-methoxy-5-methyl-anilino)-5,7-dihydropyrrolo[3,4-d]pyrimidin-6-yl]-2-methyl-piperidine-1-carbonyl]-2-pyridyl]methanesulfonamide]: 0.01 to 100 nM.
As for `C[C@@H]1C[C@H](N2Cc3cnc(Nc4ccc(F)cc4)nc3C2)CCN1C(=O)c1ccnc(NS(C)(=O)=O)c1` [compound 188, N-[4-[(2R,4R)-4-[2-(4-fluoroanilino)-5,7-dihydropyrrolo[3,4-d]pyrimidin-6-yl]-2-methyl-piperidine-1-carbonyl]-2-pyridyl]methanesulfonamide], the IC50 was 0.01 to 100 nM.
The same measure for `COc1cccc(Nc2ncc3c(n2)CN([C@@H]2CCN(C(=O)c4ccnc(NS(C)(=O)=O)c4)[C@H](C)C2)C3)c1` [compound 189, N-[4-[(2R,4R)-4-[2-(3-methoxyanilino)-5,7-dihydropyrrolo[3,4-d]pyrimidin-6-yl]-2-methyl-piperidine-1-carbonyl]-2-pyridyl]methanesulfonamide]: 0.01 to 100 nM; for `C[C@@H]1C[C@@H](N2Cc3cnc(Nc4ccc(C(F)(F)F)cc4)nc3C2)CCN1C(=O)c1ccnc(NS(C)(=O)=O)c1` [compound 190, N-[4-[(2R,4S)-2-methyl-4-[2-[4-(trifluoromethyl)anilino]-5,7-dihydropyrrolo[3,4-d]pyrimidin-6-yl]piperidine-1-carbonyl]-2-pyridyl]methanesulfonamide]: 0.01 to 100 nM; for `COc1cc(C)cc(Nc2ncc3c(n2)CN([C@H]2CCN(C(=O)c4ccnc(NS(C)(=O)=O)c4)[C@H](C)C2)C3)c1` [compound 191, N-[4-[(2R,4S)-4-[2-(3-methoxy-5-methyl-anilino)-5,7-dihydropyrrolo[3,4-d]pyrimidin-6-yl]-2-methyl-piperidine-1-carbonyl]-2-pyridyl]methanesulfonamide]: 100 to 500 nM.
